# Results reported in patent US8765746B2 (Millennium Pharmaceuticals, Inc., priority 2010, dated 2014).
# Key:
# Assay type in all cases: biochemical
# PI3Kbeta = biological target: T1, PI3Kbeta (Homo sapiens, UniProt P42338); experiment: Human PI3K beta enzyme assay (HTRF, as for PI3K alpha); conditions: at 1.11 μM; for inhibition at 1.11 µM: read-out: PI3Kbeta % inh
# T1 construct: His (N); host or cells: SF9 insect cells (baculovirus)
# How it was run: (§1)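 N-His p110β/δ co-expressed with untagged p85 in Sf9, p110γ alone. Enzyme 5.25 nM (β), 0.75 nM (δ), 5 nM (γ), with ATP 25 uM and di-C8 PI(4,5)P2 3.5 uM (added-solution levels), pH 7.00, 30 min RT. HTRF read-out: biotin-PIP3, GST-GRP-1 PH domain, Eu anti-GST, streptavidin-XL.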
# PI3Kdelta = biological target: T2, PI3Kdelta (Homo sapiens, UniProt O00329); experiment: Human PI3K delta enzyme assay (HTRF, as for PI3K alpha); conditions: for inhibition at 1.11 µM: read-out: PI3Kdelta % inh
# T2 construct: His (N); host or cells: SF9 insect cells (baculovirus)
# T2 sequence (O00329 whole entry): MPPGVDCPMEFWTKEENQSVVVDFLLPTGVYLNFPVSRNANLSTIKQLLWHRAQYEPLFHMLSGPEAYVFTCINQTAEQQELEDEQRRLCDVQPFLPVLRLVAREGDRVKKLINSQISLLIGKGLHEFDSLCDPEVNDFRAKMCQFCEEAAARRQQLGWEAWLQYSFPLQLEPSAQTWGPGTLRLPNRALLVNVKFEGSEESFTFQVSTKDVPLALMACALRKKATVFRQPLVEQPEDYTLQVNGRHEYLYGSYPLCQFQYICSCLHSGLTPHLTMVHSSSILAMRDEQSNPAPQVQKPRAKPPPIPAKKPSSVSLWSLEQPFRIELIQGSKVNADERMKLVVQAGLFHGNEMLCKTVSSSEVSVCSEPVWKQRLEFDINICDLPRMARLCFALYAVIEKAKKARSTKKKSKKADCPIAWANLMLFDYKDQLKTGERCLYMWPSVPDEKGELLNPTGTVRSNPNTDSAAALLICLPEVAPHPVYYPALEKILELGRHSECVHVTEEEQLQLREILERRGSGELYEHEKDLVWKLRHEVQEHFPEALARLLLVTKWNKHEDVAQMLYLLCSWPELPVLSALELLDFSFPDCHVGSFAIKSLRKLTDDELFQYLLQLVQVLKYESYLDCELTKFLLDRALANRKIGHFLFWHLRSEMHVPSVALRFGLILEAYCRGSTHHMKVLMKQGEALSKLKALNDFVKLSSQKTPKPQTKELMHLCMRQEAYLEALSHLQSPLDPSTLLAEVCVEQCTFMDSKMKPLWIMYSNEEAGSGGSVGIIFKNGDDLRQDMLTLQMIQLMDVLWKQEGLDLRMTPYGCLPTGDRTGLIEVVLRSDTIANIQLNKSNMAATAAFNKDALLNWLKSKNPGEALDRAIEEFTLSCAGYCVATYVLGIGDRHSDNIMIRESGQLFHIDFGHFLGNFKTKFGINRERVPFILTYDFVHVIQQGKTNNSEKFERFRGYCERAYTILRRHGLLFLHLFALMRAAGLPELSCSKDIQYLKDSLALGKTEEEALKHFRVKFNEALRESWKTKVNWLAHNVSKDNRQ
# T2 sequence (P27986 whole entry partner): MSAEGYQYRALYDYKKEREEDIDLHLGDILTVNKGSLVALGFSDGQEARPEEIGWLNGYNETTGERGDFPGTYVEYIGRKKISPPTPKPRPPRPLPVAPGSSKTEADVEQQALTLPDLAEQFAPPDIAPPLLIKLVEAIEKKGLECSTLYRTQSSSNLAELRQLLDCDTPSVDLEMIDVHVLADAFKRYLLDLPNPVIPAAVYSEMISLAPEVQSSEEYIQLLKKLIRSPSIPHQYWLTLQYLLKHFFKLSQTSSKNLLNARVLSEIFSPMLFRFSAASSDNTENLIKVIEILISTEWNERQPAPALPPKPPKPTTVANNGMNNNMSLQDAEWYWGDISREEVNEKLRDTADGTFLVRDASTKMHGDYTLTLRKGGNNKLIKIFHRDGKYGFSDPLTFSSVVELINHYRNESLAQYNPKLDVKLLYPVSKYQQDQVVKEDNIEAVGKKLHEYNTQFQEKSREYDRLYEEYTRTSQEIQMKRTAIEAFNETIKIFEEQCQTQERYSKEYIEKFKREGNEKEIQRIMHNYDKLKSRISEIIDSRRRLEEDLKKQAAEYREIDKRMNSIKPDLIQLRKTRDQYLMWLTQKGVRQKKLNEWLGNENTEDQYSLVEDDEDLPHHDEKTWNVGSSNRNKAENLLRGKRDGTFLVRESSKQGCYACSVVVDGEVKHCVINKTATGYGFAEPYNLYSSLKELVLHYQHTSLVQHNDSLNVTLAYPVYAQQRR
# How it was run: as §1
# PI3Kgamma = biological target: T3, PI3Kgamma (Homo sapiens, UniProt P48736); experiment: Human PI3K gamma enzyme assay (HTRF, as for PI3K alpha); conditions: for inhibition at 1.11 µM: read-out: PI3Kgamma % inh
# T3 construct: His (N); host or cells: SF9 insect cells (baculovirus)
# T3 sequence (P48736 whole entry): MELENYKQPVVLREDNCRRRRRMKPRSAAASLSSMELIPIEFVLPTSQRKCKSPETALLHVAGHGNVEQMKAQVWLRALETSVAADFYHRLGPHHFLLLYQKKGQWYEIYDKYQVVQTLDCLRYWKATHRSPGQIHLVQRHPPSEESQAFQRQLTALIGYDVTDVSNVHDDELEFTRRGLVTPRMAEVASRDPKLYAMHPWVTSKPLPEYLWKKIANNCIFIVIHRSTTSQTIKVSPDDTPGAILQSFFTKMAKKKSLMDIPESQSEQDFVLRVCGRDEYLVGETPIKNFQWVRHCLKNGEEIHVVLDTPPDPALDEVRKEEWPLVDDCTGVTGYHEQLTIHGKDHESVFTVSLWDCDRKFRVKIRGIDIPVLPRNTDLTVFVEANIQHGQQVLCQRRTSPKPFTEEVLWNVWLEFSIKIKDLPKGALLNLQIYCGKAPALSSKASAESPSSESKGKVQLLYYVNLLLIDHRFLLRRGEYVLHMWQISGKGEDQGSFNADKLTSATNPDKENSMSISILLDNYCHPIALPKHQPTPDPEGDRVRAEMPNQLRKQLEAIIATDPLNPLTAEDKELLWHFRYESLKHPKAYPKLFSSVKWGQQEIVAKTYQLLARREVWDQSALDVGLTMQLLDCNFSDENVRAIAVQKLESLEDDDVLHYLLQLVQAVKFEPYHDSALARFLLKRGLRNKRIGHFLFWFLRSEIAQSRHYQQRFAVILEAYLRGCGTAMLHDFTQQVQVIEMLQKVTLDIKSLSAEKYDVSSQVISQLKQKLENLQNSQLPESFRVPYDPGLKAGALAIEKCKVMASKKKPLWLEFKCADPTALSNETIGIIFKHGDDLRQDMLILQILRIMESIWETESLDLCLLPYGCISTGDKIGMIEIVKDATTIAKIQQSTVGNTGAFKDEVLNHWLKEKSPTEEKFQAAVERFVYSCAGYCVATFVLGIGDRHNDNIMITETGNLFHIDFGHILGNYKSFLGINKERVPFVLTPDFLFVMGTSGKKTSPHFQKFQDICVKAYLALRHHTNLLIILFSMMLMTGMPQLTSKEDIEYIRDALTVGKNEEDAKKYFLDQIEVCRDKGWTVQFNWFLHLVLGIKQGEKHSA
# How it was run: as §1
# PI3Kalpha = biological target: T4, PI3Kalpha (Homo sapiens, UniProt P42336); experiment: Human PI3Kα enzyme assay (HTRF); conditions: for inhibition at 1.11 µM: read-out: PI3Kalpha % inh; for PI3Kalpha % inh: at 1.11 μM
# T4 construct: His (N); host or cells: SF9 insect cells (baculovirus)
# T4 sequence (P42336 whole entry): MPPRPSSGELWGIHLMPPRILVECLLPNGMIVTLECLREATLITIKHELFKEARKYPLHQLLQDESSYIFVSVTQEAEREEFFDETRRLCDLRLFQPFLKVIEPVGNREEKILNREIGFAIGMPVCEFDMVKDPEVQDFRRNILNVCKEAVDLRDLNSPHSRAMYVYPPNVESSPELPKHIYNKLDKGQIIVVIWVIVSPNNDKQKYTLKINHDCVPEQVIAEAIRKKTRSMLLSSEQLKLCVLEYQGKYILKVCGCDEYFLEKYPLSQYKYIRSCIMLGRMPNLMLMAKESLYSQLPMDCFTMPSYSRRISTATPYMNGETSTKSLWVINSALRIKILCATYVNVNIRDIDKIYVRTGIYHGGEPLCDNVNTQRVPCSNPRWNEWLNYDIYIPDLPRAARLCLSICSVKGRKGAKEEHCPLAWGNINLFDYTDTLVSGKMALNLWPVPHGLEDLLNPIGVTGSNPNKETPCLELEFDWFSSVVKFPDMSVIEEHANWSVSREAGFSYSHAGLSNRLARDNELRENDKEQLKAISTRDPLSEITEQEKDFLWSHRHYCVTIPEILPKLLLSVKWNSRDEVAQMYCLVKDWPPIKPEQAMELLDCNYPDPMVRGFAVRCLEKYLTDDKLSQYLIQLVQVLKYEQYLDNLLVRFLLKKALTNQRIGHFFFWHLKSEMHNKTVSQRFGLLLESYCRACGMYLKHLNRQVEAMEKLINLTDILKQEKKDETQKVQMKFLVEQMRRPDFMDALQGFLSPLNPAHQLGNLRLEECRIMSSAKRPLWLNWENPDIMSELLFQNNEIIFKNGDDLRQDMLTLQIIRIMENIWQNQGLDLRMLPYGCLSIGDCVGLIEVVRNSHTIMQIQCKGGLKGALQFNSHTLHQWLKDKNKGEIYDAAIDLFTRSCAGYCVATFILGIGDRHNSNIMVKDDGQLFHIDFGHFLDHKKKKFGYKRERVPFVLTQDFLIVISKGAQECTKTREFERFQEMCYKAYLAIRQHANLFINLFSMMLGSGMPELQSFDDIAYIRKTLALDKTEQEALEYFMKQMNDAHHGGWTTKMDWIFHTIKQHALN
# T4 sequence (P27986 whole entry partner): as the sequence (P27986 whole entry partner) above
# How it was run: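 His-tagged p110α co-expressed with p85 in Sf9 cells was reacted for 30 min at room temperature in pH 7.00 Hepes buffer with 10 mM MgCl2. Addition solutions held 25 uM ATP, 3.5 uM di-C8 PI(4,5)P2 and 0.4875 nM enzyme. The reaction was quenched with EDTA/biotin-PIP3 and detected by HTRF (GST-GRP-1 PH domain, streptavidin-XL, Eu anti-GST) after 1 h.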
# VPS34 = biological target: T5, VPS34 (Homo sapiens, UniProt Q8NEB9); experiment: Human VPS34 enzyme assay (Adapta Universal Kinase Assay); conditions: for inhibition at 1.11 µM: 1 h, read-out: VPS34 % ihn; for VPS34 % ihn: at 1.11 μM
# T5 construct: GST (N); host or cells: SF9 insect cells (baculovirus)
# T5 sequence (Q8NEB9 whole entry): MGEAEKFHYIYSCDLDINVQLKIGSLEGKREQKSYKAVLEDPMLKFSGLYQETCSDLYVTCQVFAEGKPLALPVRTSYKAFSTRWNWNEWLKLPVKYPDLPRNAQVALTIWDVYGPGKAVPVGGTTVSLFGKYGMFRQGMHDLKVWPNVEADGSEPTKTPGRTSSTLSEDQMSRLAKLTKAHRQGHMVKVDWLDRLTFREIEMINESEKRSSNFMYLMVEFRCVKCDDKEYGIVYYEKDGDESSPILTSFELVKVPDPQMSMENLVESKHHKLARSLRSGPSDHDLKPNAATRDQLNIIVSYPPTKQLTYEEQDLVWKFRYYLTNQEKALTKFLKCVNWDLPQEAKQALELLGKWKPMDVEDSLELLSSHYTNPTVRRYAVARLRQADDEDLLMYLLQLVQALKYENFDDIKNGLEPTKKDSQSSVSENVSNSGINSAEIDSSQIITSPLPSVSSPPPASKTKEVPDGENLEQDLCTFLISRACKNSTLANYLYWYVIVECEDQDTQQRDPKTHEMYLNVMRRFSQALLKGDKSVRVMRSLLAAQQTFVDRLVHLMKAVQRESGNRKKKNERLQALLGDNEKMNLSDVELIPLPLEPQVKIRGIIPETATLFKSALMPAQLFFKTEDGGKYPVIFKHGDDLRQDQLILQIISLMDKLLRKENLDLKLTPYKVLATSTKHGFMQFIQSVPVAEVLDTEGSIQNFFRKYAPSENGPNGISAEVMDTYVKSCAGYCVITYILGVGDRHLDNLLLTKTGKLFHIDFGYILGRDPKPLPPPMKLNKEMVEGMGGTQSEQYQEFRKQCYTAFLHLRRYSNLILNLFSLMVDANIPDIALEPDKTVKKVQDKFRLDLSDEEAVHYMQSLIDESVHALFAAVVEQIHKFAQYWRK
# How it was run: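 Human VPS34, N-terminally GST-tagged and baculovirus-expressed in Sf9 cells. Solution with 20 uM ATP and 200 uM PI-PS added, then one with 5 nM enzyme (levels in each added solution), in buffer with 2 mM DTT and 2 mM MnCl2; 1 h at room temperature. ADP read by Adapta TR-FRET (Eu anti-ADP antibody, Alexa Fluor 647 tracer).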
Structure (SMILES),inhibition at 1.11 µM (PI3Kbeta) [%],inhibition at 1.11 µM (PI3Kdelta) [%],inhibition at 1.11 µM (PI3Kgamma) [%],inhibition at 1.11 µM (PI3Kalpha) [%],inhibition at 1.11 µM (VPS34) [%],PI3Kbeta % inh (PI3Kbeta) [%],PI3Kdelta % inh (PI3Kdelta; at 1.11 μM) [%],PI3Kgamma % inh (PI3Kgamma; at 1.11 μM) [%],PI3Kalpha % inh (PI3Kalpha) [%],VPS34 % ihn (VPS34) [%]
N#Cc1c(N2CCOCC2)sc2c1C(c1ccc(Cl)cc1)CNC2=O (stereo not drawn) [Compound 149],108,80.9,29.1,46.1,4.85,,,,,
N#Cc1c(N2CCOCC2)sc2c1C(c1c(F)cc(Cl)cc1F)CCNC2=O (stereo not drawn) [Compound 155],113,104,42.6,64.7,11.6,,,,,
O=C1NCC(c2ccc(Cl)cc2)c2cc(-c3ccncc3)sc21 (stereo not drawn) [Compound 156],,,,,,94.95,36.03,11.17,6.34,−0.21
COc1cc(C2CC(=O)c3sc(N4CCOCC4)cc32)ccc1Cl (stereo not drawn) [Compound 158],108,100,65.3,12.9,5.41,,,,,
"CC1(C)C(=O)c2sc(N3CCOCC3)cc2C1c1ccc(Cl)cc1 (stereo not drawn) [Compound 161, 4-(4-chlorophenyl)-5,5-dimethyl-2-morpholino-4H-cyclopenta[b]thiophen-6(5H)-one]",92.6,59.3,19.3,12.1,10.8,,,,,
CN1CC(c2ccc(Cl)cc2)c2cc(-c3ccncc3)sc2C1=O (stereo not drawn) [Compound 164],76.8,14,5.01,-2.24,8.39,,,,,
O=C1CC(c2ccc(Cl)c(Cl)c2)c2cc(N3CCOCC3)sc21 (stereo not drawn) [Compound 171],106,111,64.4,48.1,16.8,,,,,
O=C1NCCC(c2ccc(Cl)c(Cl)c2)c2nc(N3CCOCC3)sc21 (stereo not drawn) [Compound 173],103,110,41.5,24.1,41.8,,,,,
"O=C1NCCC(c2ccc(Cl)cc2)c2nc(N3CCOCC3)sc21 (stereo not drawn) [Compound 180, 8-(4-chlorophenyl)-2-(morpholin-4-yl)-5,6,7,8-tetrahydro-4H-[1,3]thiazolo[5,4-c]azepin-4-one]",97.4,87.3,28.7,13.9,55.8,,,,,
"O=C1CC(c2ccc(Cl)cc2)c2cc(-c3ccncc3)sc2N1 (stereo not drawn) [Compound 182, 4-(4-chlorophenyl)-2-(pyridin-4-yl)-4,5-dihydrothieno[2,3-b]pyridin-6(7H)-one]",61.2,48.5,3.51,2.99,14,,,,,
O=C1CC(c2ccc3ccccc3n2)c2cc(N3CCOCC3)sc21 (stereo not drawn) [Compound 183],90.4,60.1,20.6,26.9,9,,,,,
"O=C1NCCC(c2ccc(Cl)c(Cl)c2)c2cc(N3CCOCC3)sc21 (stereo not drawn) [Compound 185, 4-(3,4-dichlorophenyl)-2-(morpholin-4-yl)-4,5,6,7-tetrahydro-8H-thieno[2,3-c]azepin-8-one]",106,110,53.4,27.7,47.8,,,,,
O=C1CC(c2cccc(Cl)c2)c2cc(N3CCOCC3)sc21 (stereo not drawn) [Compound 186],92.3,74.9,23.3,15.1,26.8,,,,,
N#Cc1c(N2CCOCC2)sc2c1C(c1ccc3ccccc3c1)CCNC2=O (stereo not drawn) [Compound 188],117,110,62.3,102,12.9,,,,,
"CC1(C)NC(=O)c2sc(-c3ccncc3)cc2C1c1ccc(Cl)cc1 (stereo not drawn) [Compound 191, 4-(4-chlorophenyl)-5,5-dimethyl-2-(pyridin-4-yl)-5,6-dihydrothieno[2,3-c]pyridin-7(4H)-one]",79.4,30.3,6.39,9.58,7.04,,,,,
"CN1CC(c2ccc(Cl)cc2)c2cc(N3CCOCC3)sc2C1=O (stereo not drawn) [Compound 198, 4-(4-chlorophenyl)-6-methyl-2-morpholino-5,6-dihydrothieno[2,3-c]pyridin-7(4H)-one]",86.6,62.9,14.9,8.93,8.01,,,,,
O=C1NCCC(c2ccc3ccccc3c2)c2nc(N3CCOCC3)sc21 (stereo not drawn) [Compound 209],,110,49.5,,42.1,114.75,,,81.32,
"O=C1CCC(O)C(c2ccc(Cl)cc2)c2cc(-c3ccncc3)sc21 (stereo not drawn) [Compound 210, 4-(4-chlorophenyl)-5-hydroxy-2-pyridin-4-yl-4,5,6,7-tetrahydro-8H-cyclohepta[b]thiophen-8-one]",73,34.6,5.88,,,,,,5.17,−0.70
